According to patent US20050112573A1, “Method of detecting toxic substance” (priority 2001, published 2005):

Test system: yeast genes (level of expressed mRNA)
Experiment: DNA chip analysis of expressed mRNA of yeast genes after 2 h culture with a toxic chemical substance
Format: cell-based, Saccharomyces cerevisiae S288C
Procedure: Yeast (Saccharomyces cerevtisiae S288C (α SUC2mal mel gap2 CUP1)) were cultured at 25° C. on YPD medium (yeast extract 1%, polypepton 2%, glucose 2%). One of toxic chemical substances was added to the cell at logarithmic growth phase, and the cell was further cultured for two hours. Cell was cultured without any chemical substance in the same condition, and was used as control. Concentrations of the chemical substances were defined to inhibit the growth of the yeast but not lead to death.
After the completion of cultivation, the culture was centrifuged to collect the cells. To the cells, sodium acetate buffer (50 mM sodium acetate, 10 mM EDTA, 1% SDS) was added, and the mixture was shaken at 65° C. for five minutes, followed by returning to room temperature, and obtaining the supernatant, which procedure was repeated two times. To the supernatant, ½ amount of a solution of phenol/chloroform was added, and the mixture was centrifuged to give a supernatant, which was added with an equal amount of chloroform, and the mixture was centrifuged to give a supernatant. To the supernatant, an equal amount of isopropanol containing 0.3 M sodium acetate was added, and the mixture was allowed to stand at room temperature for 30 minutes, after which the mixture was centrifuged to give a sediment of the whole RNAs. Seventy % ethanol was added to the sediment, and the mixture was again centrifuged to give a sediment, which was then dried and dissolved in water. mRNA was isolated from the whole RNAs as followings. In view of the fact that a poly A chain is attached to the 3′ terminus of mRNA, a polynucleotide having a poly T structure which was immobilized on the surface of latex beads was used to trap the mRNA, and then the mRNA was washed and eluted with spine column (Oligotex-dT30<Super>mRNA Purification Kit, Takara). Reverse transcription of the mRNA was conducted with a reverse transcriptase (Super Script II Reverse Transcriptase; catalogue No. 18064-014, GibcoBRL) using fluorescence-labeled nucleotides to give cDNAs that were introduced with Cy3-dUTP or Cy5-dUTP during the reverse transcription.
The labeled cDNAs were dissolved in TE buffer (10 mM Tris-HCl/1 mM EDTA, pH8.0), and the solution was dropped on the DNA chip containing the whole genes of yeast (DNA Chip Research Inc. Japan) so that the cDNAs were hybridized on the DNA chip at 65° C. for over 12 hours. The fluoresces intensity of the DNA chip was read with a scanner, and the ratio relative to the fluorescence intensity resulting from the absence of chemical substance was estimated as the following, which is shown in Tables 1 to 9: [formula]
In the Tables, “Intensity” indicated in the rightmost column is a value of the level of expressed mRNA of each gene in control cells as divided by the average level of the expressions of the whole genes.

C=CC=O [(14), acrolein]
1.7: The level of expressed mRNA in the presence of chemical substance/absence: YBR063C (gene YBR063C) | The level of expressed mRNA in the presence of chemical substance/absence: YCR007C (gene YCR007C) | The level of expressed mRNA in the presence of chemical substance/absence: YGL183C (gene YGL183C)
0.5: level of expressed mRNA in the presence of chemical substance/in its absence (gene YAL038W) | The level of expressed mRNA in the presence of chemical substance/absence: YBR162C (gene YBR162C) | level of expressed mRNA in the presence of chemical substance/in its absence (gene YBR222C) | level of expressed mRNA in the presence of chemical substance/in its absence (gene YGL022W) | level of expressed mRNA in the presence of chemical substance/in its absence (gene YGL253W)
1.0: The level of expressed mRNA in the presence of chemical substance/absence: YAL018C (gene YAL018C) | The level of expressed mRNA in the presence of chemical substance/absence: YBR051W (gene YBR051W) | The level of expressed mRNA in the presence of chemical substance/absence: YBR124W (gene YBR124W) | The level of expressed mRNA in the presence of chemical substance/absence: YCL044C (gene YCL044C) | The level of expressed mRNA in the presence of chemical substance/absence: YDR109C (gene YDR109C) | The level of expressed mRNA in the presence of chemical substance/absence: YDR128W (gene YDR128W) | The level of expressed mRNA in the presence of chemical substance/absence: YDR221W (gene YDR221W) | The level of expressed mRNA in the presence of chemical substance/absence: YDR338C (gene YDR338C) | level of expressed mRNA in the presence of chemical substance/in its absence (gene YEL020C) | The level of expressed mRNA in the presence of chemical substance/absence: YFR026C (gene YFR026C) | level of expressed mRNA in the presence of chemical substance/in its absence (gene YGL104C) | level of expressed mRNA in the presence of chemical substance/in its absence (gene YGR282C)
0.7: level of expressed mRNA in the presence of chemical substance/in its absence (gene YBR126C) | level of expressed mRNA in the presence of chemical substance/in its absence (gene YCL009C) | The level of expressed mRNA in the presence of chemical substance/absence: YDR316W (gene YDR316W)
2.0: The level of expressed mRNA in the presence of chemical substance/absence: YAL049C (gene YAL049C) | The level of expressed mRNA in the presence of chemical substance/absence: YDR071C (gene YDR071C)
0.8: level of expressed mRNA in the presence of chemical substance/in its absence (gene YBR023C) | The level of expressed mRNA in the presence of chemical substance/absence: YBR287W (gene YBR287W) | level of expressed mRNA in the presence of chemical substance/in its absence (gene YCL064C) | level of expressed mRNA in the presence of chemical substance/in its absence (gene YCR037C) | level of expressed mRNA in the presence of chemical substance/in its absence (gene YDL022W) | level of expressed mRNA in the presence of chemical substance/in its absence (gene YDR502C) | level of expressed mRNA in the presence of chemical substance/in its absence (gene YGR060W) | The level of expressed mRNA in the presence of chemical substance/absence: YGR198W (gene YGR198W) | The level of expressed mRNA in the presence of chemical substance/absence: YGR210C (gene YGR210C) | The level of expressed mRNA in the presence of chemical substance/absence: YGR266W (gene YGR266W)
1.3: level of expressed mRNA in the presence of chemical substance/in its absence (gene YAL054C) | The level of expressed mRNA in the presence of chemical substance/absence: YAR047C (gene YAR047C) | level of expressed mRNA in the presence of chemical substance/in its absence (gene YBR035C) | level of expressed mRNA in the presence of chemical substance/in its absence (gene YBR050C) | level of expressed mRNA in the presence of chemical substance/in its absence (gene YBR183W) | level of expressed mRNA in the presence of chemical substance/in its absence (gene YDR410C) | The level of expressed mRNA in the presence of chemical substance/absence: YDR425W (gene YDR425W) | The level of expressed mRNA in the presence of chemical substance/absence: YDR504C (gene YDR504C) | level of expressed mRNA in the presence of chemical substance/in its absence (gene YER069W) | The level of expressed mRNA in the presence of chemical substance/absence: YGR250C (gene YGR250C)
1.9: The level of expressed mRNA in the presence of chemical substance/absence: YER182W (gene YER182W) | The level of expressed mRNA in the presence of chemical substance/absence: YGR243W (gene YGR243W)
3.1: level of expressed mRNA in the presence of chemical substance/in its absence (gene YFR015C)
1.6: level of expressed mRNA in the presence of chemical substance/in its absence (gene YBR111C) | The level of expressed mRNA in the presence of chemical substance/absence: YBR129C (gene YBR129C) | level of expressed mRNA in the presence of chemical substance/in its absence (gene YDR019C) | level of expressed mRNA in the presence of chemical substance/in its absence (gene YGL209W) | The level of expressed mRNA in the presence of chemical substance/absence: YGR156W (gene YGR156W)
0.4: The level of expressed mRNA in the presence of chemical substance/absence: YGR211W (gene YGR211W)
1.1: The level of expressed mRNA in the presence of chemical substance/absence: YAL017W (gene YAL017W) | The level of expressed mRNA in the presence of chemical substance/absence: YAR064W (gene YAR064W) | level of expressed mRNA in the presence of chemical substance/in its absence (gene YAR071W) | The level of expressed mRNA in the presence of chemical substance/absence: YBR066C (gene YBR066C) | The level of expressed mRNA in the presence of chemical substance/absence: YBR255W (gene YBR255W) | level of expressed mRNA in the presence of chemical substance/in its absence (gene YCR098C) | The level of expressed mRNA in the presence of chemical substance/absence: YDL193W (gene YDL193W) | The level of expressed mRNA in the presence of chemical substance/absence: YDL233W (gene YDL233W) | The level of expressed mRNA in the presence of chemical substance/absence: YDR485C (gene YDR485C) | level of expressed mRNA in the presence of chemical substance/in its absence (gene YER026C) | level of expressed mRNA in the presence of chemical substance/in its absence (gene YGL001C) | The level of expressed mRNA in the presence of chemical substance/absence: YGL045W (gene YGL045W) | level of expressed mRNA in the presence of chemical substance/in its absence (gene YGL134W) | level of expressed mRNA in the presence of chemical substance/in its absence (gene YGL154C)
3.2: The level of expressed mRNA in the presence of chemical substance/absence: YDR140W (gene YDR140W)
2.1: The level of expressed mRNA in the presence of chemical substance/absence: YDL173W (gene YDL173W)
2.2: level of expressed mRNA in the presence of chemical substance/in its absence (gene YBR145W) | The level of expressed mRNA in the presence of chemical substance/absence: YCL056C (gene YCL056C)
0.9: level of expressed mRNA in the presence of chemical substance/in its absence (gene YAL012W) | The level of expressed mRNA in the presence of chemical substance/absence: YBL044W (gene YBL044W) | The level of expressed mRNA in the presence of chemical substance/absence: YBL100C (gene YBL100C) | The level of expressed mRNA in the presence of chemical substance/absence: YBR012C (gene YBR012C) | level of expressed mRNA in the presence of chemical substance/in its absence (gene YBR029C) | The level of expressed mRNA in the presence of chemical substance/absence: YBR281C (gene YBR281C) | level of expressed mRNA in the presence of chemical substance/in its absence (gene YCR048W) | The level of expressed mRNA in the presence of chemical substance/absence: YDR090C (gene YDR090C) | The level of expressed mRNA in the presence of chemical substance/absence: YDR250C (gene YDR250C) | The level of expressed mRNA in the presence of chemical substance/absence: YDR278C (gene YDR278C) | level of expressed mRNA in the presence of chemical substance/in its absence (gene YGL039W) | The level of expressed mRNA in the presence of chemical substance/absence: YGL223C (gene YGL223C) | The level of expressed mRNA in the presence of chemical substance/absence: YGR139W (gene YGR139W)
1.8: The level of expressed mRNA in the presence of chemical substance/absence: YAL014C (gene YAL014C) | level of expressed mRNA in the presence of chemical substance/in its absence (gene YBR068C) | The level of expressed mRNA in the presence of chemical substance/absence: YDR078C (gene YDR078C)
1.4: level of expressed mRNA in the presence of chemical substance/in its absence (gene YAL044C) | level of expressed mRNA in the presence of chemical substance/in its absence (gene YBR299W) | The level of expressed mRNA in the presence of chemical substance/absence: YDR271C (gene YDR271C) | The level of expressed mRNA in the presence of chemical substance/absence: YDR366C (gene YDR366C) | The level of expressed mRNA in the presence of chemical substance/absence: YGL088W (gene YGL088W) | The level of expressed mRNA in the presence of chemical substance/absence: YGR038W (gene YGR038W)
1.2: level of expressed mRNA in the presence of chemical substance/in its absence (gene YBR014C) | The level of expressed mRNA in the presence of chemical substance/absence: YDL046W (gene YDL046W) | The level of expressed mRNA in the presence of chemical substance/absence: YDL089W (gene YDL089W) | The level of expressed mRNA in the presence of chemical substance/absence: YDR281C (gene YDR281C) | The level of expressed mRNA in the presence of chemical substance/absence: YDR421W (gene YDR421W) | The level of expressed mRNA in the presence of chemical substance/absence: YER092W (gene YER092W) | The level of expressed mRNA in the presence of chemical substance/absence: YFL042C (gene YFL042C) | The level of expressed mRNA in the presence of chemical substance/absence: YGL041C (gene YGL041C)
2.5: The level of expressed mRNA in the presence of chemical substance/absence: YBR013C (gene YBR013C) | level of expressed mRNA in the presence of chemical substance/in its absence (gene YDR487C)
0.6: The level of expressed mRNA in the presence of chemical substance/absence: YDR133C (gene YDR133C) | level of expressed mRNA in the presence of chemical substance/in its absence (gene YDR380W) | The level of expressed mRNA in the presence of chemical substance/absence: YEL044W (gene YEL044W) | The level of expressed mRNA in the presence of chemical substance/absence: YFR056C (gene YFR056C) | The level of expressed mRNA in the presence of chemical substance/absence: YGR237C (gene YGR237C)
1.5: level of expressed mRNA in the presence of chemical substance/in its absence (gene YBL001C) | level of expressed mRNA in the presence of chemical substance/in its absence (gene YDR009W) | level of expressed mRNA in the presence of chemical substance/in its absence (gene YEL011W) | The level of expressed mRNA in the presence of chemical substance/absence: YGL057C (gene YGL057C) | The level of expressed mRNA in the presence of chemical substance/absence: YGR277C (gene YGR277C)
